The values below come from patent US20200268827A1, “COMPOSITION FOR PREVENTION, IMPROVEMENT OR TREATMENT OF OSTEOARTHRITIS COMPRISING ALPINIA OXYPHYLLA EXTRACT AS EFFECTIVE COMPONENT” (KOREA INSTITUTE OF ORIENTAL MEDICINE, priority 2017, published 2020).

What all share (assay type): in vivo, SD rat
The subject of one assay is COX-2. Briefly: mRNA expression of inflammatory factor in joint with induced osteoarthritis by PCR. The conditions noted are these: compared to MIA-induced increase, FIG. 2. An excerpt:
(§1) From a joint with induced osteoarthritis, mRNA was extracted and the expression of an inflammatory factor (IL-1β, IL-6, TNF-α and COX-2) and a cartilage degeneration-inducing factor (MMP-9) was examined by PCR.

A further assay has as its system IL-1β. The description is as above. The conditions noted are these: compared to MIA-induced increase, FIG. 2.
From the text: as §1

Another assay concerns IL-6. Described as above. The conditions noted are these: compared to MIA-induced increase, FIG. 2.
From the text: as §1

The next assay relates to TNF-α. The description is as above. The conditions noted are these: compared to MIA-induced increase, FIG. 2.
From the text: as §1

A further assay concerns MMP-9. Briefly: mRNA expression of cartilage degeneration-inducing factor in joint with induced osteoarthritis by PCR. The conditions noted are these: compared to MIA-induced increase, FIG. 2.
From the text: as §1

The subject of assay [1] is MIA (monosodium iodoacetate)-induced osteoarthritis. Briefly: Bodyweight loading of hind limb in animal model of MIA-induced osteoarthritis (incapacitance tester). The conditions noted are these: compared to MIA group; oral once a day for 21 days, measured every 7 days; FIG. 1. Here is the method:
To determine the effect of an extract of Alpinia oxyphylla, which has been prepared in the above Example 1, on bodyweight loading in an animal model of MIA-induced osteoarthritis, MIA as an osteoarthritis-inducing material (diluted to 60 mg/ml with 0.9% physiological saline) was administered in an amount of 50 μl to an articular cavity of a right hind limb of 7-week old SD rat to induce osteoarthritis. After that, the animal was orally administered with an extract of Alpinia oxyphylla (150 or 300 mg/kg) once a day for 21 days, while the percentage of bodyweight loading was measured every 7 days. As a positive control group, indomethacin (1 mg/kg) was used.
The bodyweight loading on hind limb was measured by using a paw weight tester (Incapacitance tester, Linton instrument Co., UK, Ser No. 01/45/25). In a tester holder, the rat with induced osteoarthritis tends to stand on a normal paw which has not been administered with MIA due to the pain occurring in the other paw, and thus balance between the weights of two paws was not maintained so that the weight of paw administered with MIA is measured to be relatively lighter than the weight of normal paw. […] Then, by using the weight of paw which has been measured accordingly, percentage of bodyweight loading (%) was calculated based on the following Formula 1. […]

Structures are written as SMILES.

As for `COc1ccc2c(c1)c(CC(=O)O)c(C)n2C(=O)c1ccc(Cl)cc1` [indomethacin], in the assay with COX-2, the “expression of COX-2 (inflammatory factor)” value is “decreased in significant sense”. For the same compound, the “expression of IL-1β (inflammatory factor)” value with IL-1β is “decreased in significant sense”. Besides, the “expression of IL-6 (inflammatory factor)” value in the assay with IL-6 was “decreased in significant sense”. For the same compound, in the assay with TNF-α, the “expression of TNF-α (inflammatory factor)” value is recorded as “decreased in significant sense”. For the same compound, the “expression of MMP-9 (cartilage degeneration-inducing factor)” value in the assay on MMP-9 is “decreased in significant sense”. Besides, in assay [1], the “percentage of bodyweight loading (%) of hind limb” value is recorded as “higher than the MIA-induced osteoarthritis group”.
